According to US12653191B2, “Active compound combinations” (Bayer Aktiengesellschaft, priority 2020, dated 2026):
Several values for one entry are separate records, joined by “and”; a condition that tells them apart may be missing. Identical values can stand only once.

Columns and labels:
[1] = test system: Ustilago segetum var. avenae; test: in vitro-Test with fungal microorganisms, Method A (tables I1-I5); assay type: cell-based; conditions: alone
Procedure, shortened: (§1)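 Methanol/emulsifier compound solution evaporated in well; liquid potato dextrose medium + spore or mycelium suspension added; 20° C, 85% RH, 3-5 d; photometric read 620 nm; % efficacy vs untreated.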

Diaporthe citri [2] = test: in vitro-Test with fungal microorganisms, Method A (tables F1-F11); assay type: cell-based
Procedure, shortened: as §1

Alternaria alternate = test: in vitro-Test with fungal microorganisms, Method A (tables A1-A12); assay type: cell-based, Alternaria alternata; conditions: applied alone
Procedure, shortened: as §1

[3] = Log P by HPLC on reversed phase columns (LC-UV), method [a]: acidic range, 0.1% formic acid in water / acetonitrile; assay type: physicochemical
Description: Measurement of Log P Values
Measurement of Log P values as provided herein was performed according to EEC directive 79/831 Annex V.A8 by HPLC (High Performance Liquid Chromatography) on reversed phase columns with the following methods: • ^[a]
If more than one Log P value is available within the same method, all the values are given and separated by “+”.

Fusarium culmorum [4] = test: in vitro-Test with fungal microorganisms, Method A (tables G1-G4); assay type: cell-based
Procedure, shortened: as §1

Cercospora beticola [5] = test: in vitro-Test with fungal microorganisms, Method A (tables C1-C10); assay type: cell-based
Procedure, shortened: as §1

Parastagonospora nodorum [6] = test: in vitro-Test with fungal microorganisms, Method A (tables H1-H4); assay type: cell-based
Procedure, shortened: as §1

[7] = test system: Ustilago segetum var. avenae; test: in vitro-Test with fungal microorganisms, Method B (tables I6-I11); assay type: cell-based
Procedure, shortened: (§2)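 Efficacy, relative to untreated control (0% = growth as in control, 100% = no growth), from photometric growth measurement at 600 nm after 3 to 7 days at 20° C., 85% relative humidity. Compound applied in methanol+emulsifier, solvent evaporated, then spore/mycelium-amended liquid medium added.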

Colletotrichum coccodes = test: in vitro-Test with fungal microorganisms, Method B (tables J1-J11); assay type: cell-based
Procedure, shortened: as §2

Diaporthe citri [8] = test: in vitro-Test with fungal microorganisms, Method B (tables F12-F15); assay type: cell-based; conditions: Table F14
Procedure, shortened: as §2

Botrytis cinerea [9] = test: in vitro-Test with fungal microorganisms, Method A (tables B1-B14); assay type: cell-based; conditions: for Efficacy %: alone
Procedure, shortened: as §1

Cordana musae = test: in vitro-Test with fungal microorganisms, Method A (tables E1-E8); assay type: cell-based; conditions: single substance
Procedure, shortened: as §1

Alternaria alternata = test: in vitro-Test with fungal microorganisms, Method B (tables A13-A22); assay type: cell-based
Procedure, shortened: as §2

Botrytis cinerea [10] = test: in vitro-Test with fungal microorganisms, Method B (tables B15-B18); assay type: cell-based
Procedure, shortened: as §2

Parastagonospora nodorum [11] = test: in vitro-Test with fungal microorganisms, Method B (tables H5-H8); assay type: cell-based
Procedure, shortened: as §2

Cercospora beticola [12] = test: in vitro-Test with fungal microorganisms, Method B (tables C11-C20); assay type: cell-based
Procedure, shortened: as §2

[13] = test system: Colletotrichum lindemuthianum; test: in vitro-Test with fungal microorganisms, Method A (tables D1-D8); assay type: cell-based
Procedure, shortened: as §1

Fusarium culmorum [14] = test: in vitro-Test with fungal microorganisms, Method B (tables G5-G15); assay type: cell-based; conditions: single active compound
Procedure, shortened: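 Compound in methanol plus alkylaryl-polyglycol-ether emulsifier dried in wells, then liquid medium containing Fusarium culmorum spores or mycelium added. Incubated 3-7 days at 20° C, 85% relative humidity; growth read at 600 nm. Efficacy relative to untreated control (0% equals control growth, 100% none).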

[15] = method [a], acidic range (0.1% formic acid), Table 17, compounds of formula (10)

## Cc1ccc(CC2CON=C(c3cc(C)nnc3Oc3cccc(Cl)c3F)N2)c(Cl)c1 (racemic) [Compound I-302, rac-3-[3-(3-chloro-2-fluorophenoxy)-6-methylpyridazin-4-yl]-5-[(2-chloro-4-methylphenyl)methyl]-5,6-dihydro-4H-1,2,4-oxadiazine]
[1]; 0.0008 ppm, read-out: Efficacy %
  inhibition of growth at 0.0008 ppm: 0%
[1]; 0.004 ppm, read-out: Efficacy %
  inhibition of growth at 0.004 ppm: 0%
[1]; 0.02 ppm, read-out: Efficacy %
  inhibition of growth at 0.02 ppm: 0%
[1]; 0.1 ppm, read-out: Efficacy %
  inhibition of growth at 0.1 ppm: 0%
Diaporthe citri [2]; Diaporthe citri, applied alone, 0.0008 ppm, read-out: Efficacy
  inhibition of growth at 0.0008 ppm: 0%
Diaporthe citri [2]; Diaporthe citri, applied alone, 0.004 ppm, read-out: Efficacy
  inhibition of growth at 0.004 ppm: 1%
Diaporthe citri [2]; Diaporthe citri, applied alone, 0.02 ppm, read-out: Efficacy
  inhibition of growth at 0.02 ppm: 0%
Diaporthe citri [2]; Diaporthe citri, applied alone, 0.1 ppm, read-out: Efficacy
  inhibition of growth at 0.1 ppm: 20%
Diaporthe citri [2]; applied alone, 0.004 ppm
  Efficacy: 1%
Alternaria alternate; Alternaria, 0.0008 ppm, read-out: Efficacy %
  inhibition of growth at 0.0008 ppm: 9%
Alternaria alternate; Alternaria, 0.004 ppm, read-out: Efficacy %
  inhibition of growth at 0.004 ppm: 6%
Alternaria alternate; Alternaria, 0.02 ppm, read-out: Efficacy %
  inhibition of growth at 0.02 ppm: 36%
Alternaria alternate; Alternaria, 0.1 ppm, read-out: Efficacy %
  inhibition of growth at 0.1 ppm: 100%
Alternaria alternate; 0.004 ppm
  Efficacy %: 6%
[3]; method [a]: HPLC on reversed phase column, acidic range, 0.1% formic acid in water / acetonitrile
  chromatographic logP: 3.94
Fusarium culmorum [4]; 0.004 ppm, alone
  Efficacy: 4%
Fusarium culmorum [4]; Fusarium culmorum, 0.0008 ppm, alone, read-out: Efficacy
  inhibition of growth at 0.0008 ppm: 7%
Fusarium culmorum [4]; Fusarium culmorum, 0.004 ppm, alone, read-out: Efficacy
  inhibition of growth at 0.004 ppm: 4%
Fusarium culmorum [4]; Fusarium culmorum, 0.02 ppm, alone, read-out: Efficacy
  inhibition of growth at 0.02 ppm: 2%
Fusarium culmorum [4]; Fusarium culmorum, 0.1 ppm, alone, read-out: Efficacy
  inhibition of growth at 0.1 ppm: 0%
Cercospora beticola [5]; Cercospora beticola, 0.0008 ppm, read-out: Efficacy %
  inhibition of growth at 0.0008 ppm: 0%
Cercospora beticola [5]; Cercospora beticola, 0.004 ppm, read-out: Efficacy %
  inhibition of growth at 0.004 ppm: 0%
Cercospora beticola [5]; Cercospora beticola, 0.02 ppm, read-out: Efficacy %
  inhibition of growth at 0.02 ppm: 31%
Cercospora beticola [5]; Cercospora beticola, 0.1 ppm, read-out: Efficacy %
  inhibition of growth at 0.1 ppm: 35%

## CC(O)(Cn1cncn1)c1ccc(Oc2ccc(Cl)cc2)cc1C(F)(F)F (stereo not drawn) [(1.055) mefentrifluconazole, mefentrifluconazole]
Parastagonospora nodorum [6]; 0.008 ppm
  Efficacy: 89%
Parastagonospora nodorum [6]; 0.04 ppm
  Efficacy: 99%
Parastagonospora nodorum [6]; 0.2 ppm
  Efficacy: 99%
Parastagonospora nodorum [6]; 1.0 ppm
  Efficacy: 100%
Parastagonospora nodorum [6]; single active compound, 0.008 ppm
  Efficacy: 90%
Parastagonospora nodorum [6]; single active compound, 0.04 ppm
  Efficacy: 97%
Parastagonospora nodorum [6]; single active compound, 0.2 ppm
  Efficacy: 100%
Parastagonospora nodorum [6]; single active compound, 1.0 ppm
  Efficacy: 100%
[7]; 0.008 ppm
  Efficacy %: 4%
[7]; 0.04 ppm
  Efficacy %: 3%
[7]; 0.2 ppm
  Efficacy %: 41%
[7]; 1 ppm
  Efficacy %: 100%
[7]; alone, 0.2 ppm
  Efficacy %: 53%
[7]; alone, 1 ppm
  Efficacy %: 100%
[1]; 0.008 ppm
  Efficacy %: 0%
[1]; 0.04 ppm
  Efficacy %: 4%
[1]; 0.2 ppm
  Efficacy %: 100%
[1]; 1.0 ppm
  Efficacy %: 100%
Colletotrichum coccodes; 0.008 ppm
  Efficacy %: 0%
Colletotrichum coccodes; 0.2 ppm
  Efficacy %: 34%
Colletotrichum coccodes; 1 ppm
  Efficacy %: 100%
Colletotrichum coccodes; single active compound at 0.2 ppm
  Efficacy %: 22%
Diaporthe citri [2]; applied alone, 0.008 ppm
  Efficacy: 0%
Diaporthe citri [2]; applied alone, 0.04 ppm
  Efficacy: 60% and 38%
Diaporthe citri [2]; applied alone, 0.2 ppm
  Efficacy: 100%
Diaporthe citri [2]; applied alone, 1.0 ppm
  Efficacy: 100%
Diaporthe citri [2]; single active, 0.008 ppm
  Efficacy: 17%
Diaporthe citri [2]; single active, 0.04 ppm
  Efficacy: 69%
Diaporthe citri [2]; single active, 0.2 ppm
  Efficacy: 99%
Diaporthe citri [2]; single active, 1.0 ppm
  Efficacy: 100%
Diaporthe citri [8]; 0.008 ppm alone
  Efficacy: 8%
Diaporthe citri [8]; 0.04 ppm alone
  Efficacy: 21%
Diaporthe citri [8]; 0.2 ppm alone
  Efficacy: 94%
Diaporthe citri [8]; 1 ppm alone
  Efficacy: 99%
Alternaria alternate; 0.008 ppm
  Efficacy %: 9%
Alternaria alternate; 0.04 ppm
  Efficacy %: 58% and 32%
Alternaria alternate; 0.2 ppm
  Efficacy %: 96% and 100%
Alternaria alternate; 1.0 ppm
  Efficacy %: 100% and 99%
Botrytis cinerea [9]; 0.008 ppm
  Efficacy: 0%
  Efficacy %: 0%
Botrytis cinerea [9]; 0.04 ppm
  Efficacy: 37%
  Efficacy %: 0%
Botrytis cinerea [9]; 0.2 ppm
  Efficacy: 78%
  Efficacy %: 53%
Botrytis cinerea [9]; 1.0 ppm
  Efficacy %: 100%
Cordana musae; 0.008 ppm
  Efficacy %: 4%
Cordana musae; 0.04 ppm
  Efficacy %: 29%
Cordana musae; 0.2 ppm
  Efficacy %: 100%
Cordana musae; 1.0 ppm
  Efficacy %: 100%
Alternaria alternata; 0.008 ppm
  Efficacy: 9%
Alternaria alternata; 0.04 ppm
  Efficacy: 19%
Alternaria alternata; 0.2 ppm
  Efficacy: 91%
Alternaria alternata; single compound, 0.2 ppm
  Efficacy: 65%
Alternaria alternata; single compound, 1 ppm
  Efficacy: 99%
Botrytis cinerea [10]; 0.008 ppm alone
  Efficacy %: 0%
Botrytis cinerea [10]; 0.04 ppm alone
  Efficacy %: 0%
Botrytis cinerea [10]; 0.2 ppm alone
  Efficacy %: 30%
Parastagonospora nodorum [11]; 0.008 ppm
  Efficacy: 84%
Parastagonospora nodorum [11]; 0.04 ppm
  Efficacy: 99%
Fusarium culmorum [4]; Table G1, 0.008 ppm alone
  Efficacy: 20%
Fusarium culmorum [4]; Table G1, 0.04 ppm alone
  Efficacy: 22%
Fusarium culmorum [4]; Table G1, 0.2 ppm alone
  Efficacy: 5%
Fusarium culmorum [4]; Table G1, 1.0 ppm alone
  Efficacy: 33%
Cercospora beticola [12]; 0.008 ppm
  Efficacy %: 24%
Cercospora beticola [12]; 0.04 ppm
  Efficacy %: 84%
Cercospora beticola [12]; single compound, 0.008 ppm
  Efficacy %: 14%
Cercospora beticola [12]; single compound, 0.04 ppm
  Efficacy %: 93%
[13]; mixing partner alone, 0.008 ppm
  Efficacy %: 0%
[13]; mixing partner alone, 0.04 ppm
  Efficacy %: 0%
[13]; mixing partner alone, 0.2 ppm
  Efficacy %: 6%
[13]; mixing partner alone, 1.0 ppm
  Efficacy %: 13%
[13]; single active at 0.008 ppm
  Efficacy %: 7% and 0%
[13]; single active at 0.04 ppm
  Efficacy %: 0% and 3%
[13]; single active at 0.2 ppm
  Efficacy %: 11%
[13]; single active at 1.0 ppm
  Efficacy %: 0%
Fusarium culmorum [14]; 0.008 ppm
  Efficacy: 11% and 3%
Fusarium culmorum [14]; 0.04 ppm
  Efficacy: 16% and 24%
Fusarium culmorum [14]; 1 ppm
  Efficacy: 24% and 33%
Cercospora beticola [5]; 0.008 ppm
  Efficacy %: 12%
Cercospora beticola [5]; 0.008 ppm alone
  Efficacy %: 60% and 80%
Cercospora beticola [5]; 0.04 ppm
  Efficacy %: 100%
Cercospora beticola [5]; 0.04 ppm alone
  Efficacy %: 100% and 91%
Cercospora beticola [5]; 0.2 ppm
  Efficacy %: 100%
Cercospora beticola [5]; 0.2 ppm alone
  Efficacy %: 100%
Cercospora beticola [5]; 1.0 ppm
  Efficacy %: 100%
Cercospora beticola [5]; 1.0 ppm alone
  Efficacy %: 100%

## CON(C)C(=O)c1cc(Cl)nnc1Oc1cccc(C(F)(F)F)c1 [Compound 1-07]
[3]; method [a], acidic range (0.1% formic acid), Table 3, compounds of formula (1)
  LogP: 2.90^[a]

## Cc1cc(C(=O)NC(CON2C(=O)c3ccccc3C2=O)Cc2ccc(C)c(C)c2)c(Oc2cccc(Cl)c2F)nn1 (stereo not drawn) [Compound 3-45]
[3]; method [a], acidic range (0.1% formic acid), Table 7, compounds of formula (3)
  LogP: 4.42^[a]

## COc1cccc(Oc2nnc(Cl)cc2C#N)c1 [Compound 9-08]
[3]; method [a], acidic range (0.1% formic acid), Table 15, compounds of formula (9)
  chromatographic logP: 2.75

## N/C(=N\O)c1cc(Cl)nnc1Oc1cccc(Cl)c1 [Compound 10-04]
[3]; [15]
  chromatographic logP: 2

## N/C(=N\O)c1cc(Cl)nnc1Oc1cccc(Br)c1F [Compound 10-05]
[3]; [15]
  chromatographic logP: 2.21

## N/C(=N\O)c1cc(Cl)nnc1Oc1cccc(C2CC2)c1F [Compound 10-07]
[3]; [15]
  chromatographic logP: 2.34

## N/C(=N\O)c1cc(Cl)nnc1Oc1cccc(C2CC2)c1 [Compound 10-08]
[3]; [15]
  chromatographic logP: 2.19

## N/C(=N\O)c1cc(Cl)nnc1Oc1cccc(C(F)F)c1F [Compound 10-09]
[3]; [15]
  chromatographic logP: 1.91

## Cc1ccc(CC(CCl)NC(=NO)c2cc(Cl)nnc2Oc2cccc(C(F)(F)F)c2)c(C)c1 (stereo not drawn) [Compound 20-08]
[3]; method [a]
  LogP: 2.77^[a]

## FC(F)(F)c1cccc(Oc2nnc(Cl)cc2C2=NOC[C@H](Cc3ccccc3)N2)c1 [Compound I-070, (5S)-5-benzyl-3-[6-chloro-3-[3-(trifluoro-methyl)phenoxy]pyridazin-4-yl]-5,6-dihydro-4H-1,2,4-oxadiazine]
[3]; method [a]: HPLC, acidic range, 0.1% formic acid in water / acetonitrile
  LogP: 3.81^[a]
